Data from the supplement of paper PMC6411743.

What was measured:
guanosine triphosphate = compound: Nc1nc2c(ncn2[C@@H]2O[C@H](COP(=O)(O)OP(=O)(O)OP(=O)(O)O)[C@@H](O)[C@H]2O)c(=O)[nH]1 [guanosine triphosphate]; test: pEC50 of GTP-induced change in protein thermal stability (2D-TPP)
Procedure: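 2D thermal proteome profiling in Jurkat crude lysate. Lysate was treated 10 min at room temperature with Na-GTP (0, 0.001, 0.01, 0.1, 0.5 mM), heated to 12 temperatures (42-63.9 °C) for 3 min, and soluble protein was quantified by TMT10 LC-MS/MS. pEC50 is the median over replicates of dose-response fits (FDR-controlled hits).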

adenosine triphosphate = compound: Nc1ncnc2c1ncn2[C@@H]1O[C@H](COP(=O)(O)OP(=O)(O)OP(=O)(O)O)[C@@H](O)[C@H]1O [adenosine triphosphate]; test: pEC50 of ATP-induced change in protein thermal stability (2D-TPP)
How it was run: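 Each of three independent experiments used Jurkat crude lysate given five concentrations including vehicle (10 min, room temperature), followed by 3 min at one of 12 temperatures from 42 to 63.9 °C and NP40 with benzonase (60 min, 4 °C). TMT LC-MS/MS quantified soluble protein after ultracentrifugation, expressed as fold changes against vehicle at each temperature with median normalisation. For pEC50, dose-response curves were fitted per replicate over adjacent temperature pairs, and hits were called through permutation-based false discovery rate control.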
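For pEC50 of ATP-induced change in protein thermal stability (2D-TPP) in this document: lysate dosed with Na-ATP at 0 0.005 0.05 0.5 and 2 mM.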

UniProt Q04759, sequence (Q04759 whole entry, looked up): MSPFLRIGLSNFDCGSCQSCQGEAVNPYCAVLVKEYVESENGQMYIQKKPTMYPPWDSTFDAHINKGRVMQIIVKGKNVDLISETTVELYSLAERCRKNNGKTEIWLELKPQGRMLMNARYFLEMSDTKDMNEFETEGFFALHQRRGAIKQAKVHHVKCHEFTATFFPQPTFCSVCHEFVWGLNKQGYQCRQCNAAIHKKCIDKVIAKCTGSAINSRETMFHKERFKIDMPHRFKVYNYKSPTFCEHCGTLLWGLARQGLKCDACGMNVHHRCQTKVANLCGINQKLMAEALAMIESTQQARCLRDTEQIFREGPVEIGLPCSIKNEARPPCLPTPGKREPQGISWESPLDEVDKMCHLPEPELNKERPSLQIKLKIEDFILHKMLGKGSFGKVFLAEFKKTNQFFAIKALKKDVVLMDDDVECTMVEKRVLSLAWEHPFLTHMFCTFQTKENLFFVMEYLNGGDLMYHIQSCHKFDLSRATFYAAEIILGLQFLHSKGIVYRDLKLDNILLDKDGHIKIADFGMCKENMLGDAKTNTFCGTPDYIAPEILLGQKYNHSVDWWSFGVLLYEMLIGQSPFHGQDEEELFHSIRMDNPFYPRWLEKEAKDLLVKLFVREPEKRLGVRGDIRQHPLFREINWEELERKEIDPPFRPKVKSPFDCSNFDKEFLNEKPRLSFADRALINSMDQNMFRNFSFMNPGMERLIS
UniProt Q16512, sequence (Q16512 whole entry, looked up): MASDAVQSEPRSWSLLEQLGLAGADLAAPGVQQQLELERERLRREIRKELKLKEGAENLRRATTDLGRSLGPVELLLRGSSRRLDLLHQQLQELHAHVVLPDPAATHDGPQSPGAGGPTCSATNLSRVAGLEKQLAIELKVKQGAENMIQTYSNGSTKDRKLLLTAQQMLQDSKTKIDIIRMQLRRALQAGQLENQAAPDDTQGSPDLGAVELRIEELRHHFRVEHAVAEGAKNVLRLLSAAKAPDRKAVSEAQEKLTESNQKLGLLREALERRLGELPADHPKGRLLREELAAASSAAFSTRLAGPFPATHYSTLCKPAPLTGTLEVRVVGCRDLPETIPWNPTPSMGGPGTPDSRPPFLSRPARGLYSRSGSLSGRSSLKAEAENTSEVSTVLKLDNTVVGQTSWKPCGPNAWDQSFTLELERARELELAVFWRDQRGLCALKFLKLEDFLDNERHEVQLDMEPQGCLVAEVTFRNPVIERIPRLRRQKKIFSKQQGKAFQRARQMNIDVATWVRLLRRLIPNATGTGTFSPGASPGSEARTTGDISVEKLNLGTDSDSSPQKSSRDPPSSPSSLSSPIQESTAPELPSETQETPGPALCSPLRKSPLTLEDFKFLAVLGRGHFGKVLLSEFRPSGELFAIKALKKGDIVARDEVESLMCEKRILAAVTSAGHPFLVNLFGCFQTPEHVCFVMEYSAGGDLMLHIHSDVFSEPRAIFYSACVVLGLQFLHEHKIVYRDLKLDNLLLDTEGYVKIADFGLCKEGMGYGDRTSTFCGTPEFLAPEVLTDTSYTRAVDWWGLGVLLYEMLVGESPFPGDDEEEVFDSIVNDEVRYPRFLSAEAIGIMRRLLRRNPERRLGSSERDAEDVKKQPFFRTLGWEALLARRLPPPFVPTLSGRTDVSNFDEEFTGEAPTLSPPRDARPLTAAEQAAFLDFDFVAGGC
UniProt O75351, sequence (O75351 whole entry): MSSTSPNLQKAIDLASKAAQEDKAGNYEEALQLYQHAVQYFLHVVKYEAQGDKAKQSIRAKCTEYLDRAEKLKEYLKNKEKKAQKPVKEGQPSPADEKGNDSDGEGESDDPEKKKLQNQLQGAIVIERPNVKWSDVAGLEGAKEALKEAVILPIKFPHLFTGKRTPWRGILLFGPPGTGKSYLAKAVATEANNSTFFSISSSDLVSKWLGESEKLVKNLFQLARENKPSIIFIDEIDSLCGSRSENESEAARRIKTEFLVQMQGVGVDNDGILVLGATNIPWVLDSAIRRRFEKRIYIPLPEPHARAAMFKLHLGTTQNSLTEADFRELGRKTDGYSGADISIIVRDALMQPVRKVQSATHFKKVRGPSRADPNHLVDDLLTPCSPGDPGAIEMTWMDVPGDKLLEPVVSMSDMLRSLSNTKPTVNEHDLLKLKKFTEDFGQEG
UniProt P62333, sequence (P62333 whole entry): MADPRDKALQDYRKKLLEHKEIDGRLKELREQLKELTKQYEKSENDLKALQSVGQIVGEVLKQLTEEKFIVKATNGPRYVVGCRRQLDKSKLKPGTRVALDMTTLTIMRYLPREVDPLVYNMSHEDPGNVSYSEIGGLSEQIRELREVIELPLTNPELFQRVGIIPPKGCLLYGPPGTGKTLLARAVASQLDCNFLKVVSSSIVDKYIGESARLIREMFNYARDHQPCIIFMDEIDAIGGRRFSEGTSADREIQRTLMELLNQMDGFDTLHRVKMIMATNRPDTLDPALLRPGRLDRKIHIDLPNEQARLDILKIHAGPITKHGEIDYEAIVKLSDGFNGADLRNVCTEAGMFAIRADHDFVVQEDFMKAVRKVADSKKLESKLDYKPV
UniProt O95373, sequence (O95373 whole entry): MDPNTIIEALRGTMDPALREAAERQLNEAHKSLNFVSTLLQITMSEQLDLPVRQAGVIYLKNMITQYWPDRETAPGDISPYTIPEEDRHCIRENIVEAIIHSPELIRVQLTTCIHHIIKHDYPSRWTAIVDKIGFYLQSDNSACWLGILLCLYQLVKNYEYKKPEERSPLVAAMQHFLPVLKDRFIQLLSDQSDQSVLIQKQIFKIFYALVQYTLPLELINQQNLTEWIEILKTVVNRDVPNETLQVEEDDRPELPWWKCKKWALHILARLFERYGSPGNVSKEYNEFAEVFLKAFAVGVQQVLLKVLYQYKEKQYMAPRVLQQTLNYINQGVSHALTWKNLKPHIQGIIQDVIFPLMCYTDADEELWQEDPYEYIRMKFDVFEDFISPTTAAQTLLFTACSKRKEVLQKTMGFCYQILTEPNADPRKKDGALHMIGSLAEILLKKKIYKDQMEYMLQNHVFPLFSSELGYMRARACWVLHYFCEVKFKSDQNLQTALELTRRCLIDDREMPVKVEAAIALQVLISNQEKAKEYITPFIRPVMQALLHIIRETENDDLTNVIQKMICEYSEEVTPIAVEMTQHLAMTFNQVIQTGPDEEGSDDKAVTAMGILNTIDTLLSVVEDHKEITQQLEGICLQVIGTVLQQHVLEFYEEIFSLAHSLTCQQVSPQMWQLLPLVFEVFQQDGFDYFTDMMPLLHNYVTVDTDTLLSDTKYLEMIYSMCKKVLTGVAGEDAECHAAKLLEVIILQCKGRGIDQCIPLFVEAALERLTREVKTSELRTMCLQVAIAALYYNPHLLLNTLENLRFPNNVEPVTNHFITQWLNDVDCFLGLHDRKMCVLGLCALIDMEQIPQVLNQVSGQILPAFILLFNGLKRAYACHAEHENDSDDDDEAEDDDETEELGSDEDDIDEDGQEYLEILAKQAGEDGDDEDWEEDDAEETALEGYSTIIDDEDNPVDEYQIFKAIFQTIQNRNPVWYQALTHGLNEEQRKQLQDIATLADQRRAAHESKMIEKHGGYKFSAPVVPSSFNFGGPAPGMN
UniProt Q9UI10, sequence (Q9UI10 whole entry): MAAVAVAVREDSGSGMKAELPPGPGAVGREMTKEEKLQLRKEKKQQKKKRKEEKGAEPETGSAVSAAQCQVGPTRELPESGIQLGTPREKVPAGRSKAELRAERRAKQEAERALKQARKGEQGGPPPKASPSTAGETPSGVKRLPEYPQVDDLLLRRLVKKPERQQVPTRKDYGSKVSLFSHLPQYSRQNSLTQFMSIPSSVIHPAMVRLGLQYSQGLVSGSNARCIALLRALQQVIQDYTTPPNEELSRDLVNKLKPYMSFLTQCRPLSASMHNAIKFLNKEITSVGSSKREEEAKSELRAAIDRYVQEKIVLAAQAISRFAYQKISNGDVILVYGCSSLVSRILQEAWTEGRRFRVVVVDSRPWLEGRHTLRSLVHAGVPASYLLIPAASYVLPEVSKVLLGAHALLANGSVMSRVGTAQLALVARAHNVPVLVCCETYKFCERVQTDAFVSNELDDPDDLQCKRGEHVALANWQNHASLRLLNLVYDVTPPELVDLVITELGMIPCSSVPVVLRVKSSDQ
UniProt P61019, sequence (P61019 whole entry, looked up): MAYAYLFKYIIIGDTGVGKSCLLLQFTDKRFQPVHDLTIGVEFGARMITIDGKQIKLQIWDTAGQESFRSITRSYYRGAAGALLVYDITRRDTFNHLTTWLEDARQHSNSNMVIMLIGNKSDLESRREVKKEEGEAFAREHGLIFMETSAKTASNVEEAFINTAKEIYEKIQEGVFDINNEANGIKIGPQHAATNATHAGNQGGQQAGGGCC

Row | Target | pEC50 (guanosine triphosphate) | pEC50 (adenosine triphosphate)
1 | ATP13A1 (effect direction: stabilized) (UniProt Q9HD20) | 4.37 | 4.22
2 | TNPO2 (effect direction: stabilized) (UniProt O14787) | < 3.3 | < 2.7
3 | IPO7 (effect direction: stabilized) (UniProt O95373) | 3.57 | 3.44
4 | OLA1 (effect direction: stabilized) (UniProt Q9NTK5) | 3.87 | 3.81
5 | PRKCQ (effect direction: stabilized) (UniProt Q04759) | 4.08 | 4.19
6 | MFN2 (effect direction: stabilized) (UniProt O95140) | 4.04 | 3.77
7 | RAB2A (effect direction: stabilized) (UniProt P61019) | 4.39 | 3.56
8 | DYNC1LI1 (effect direction: stabilized) (UniProt Q9Y6G9) | 3.6 | 3.71
9 | PFKL (effect direction: stabilized) (UniProt P17858) | 3.54 | 3.4
10 | UniProt Q9BW83 (effect direction: stabilized) | 3.96 | 3.12
11 | FAR1 (effect direction: stabilized) (UniProt Q8WVX9) | 3.59 | 3.36
12 | DYNC1LI2 (effect direction: stabilized) (UniProt O43237) | 4.16 | 3.69
13 | MCM2 (effect direction: stabilized) (UniProt P49736) | 4.06 | 3.58
14 | RABL3 (effect direction: stabilized) (UniProt Q5HYI8) | 3.95 | 3.4
15 | UniProt P19784 (effect direction: stabilized) | 3.92 | 4.12
16 | UniProt P17252 (effect direction: stabilized) | 4.06 | 4.25
17 | EEF2 (effect direction: stabilized) (UniProt P13639) | 3.94 | 3.58
18 | TBCD (effect direction: stabilized) (UniProt Q9BTW9) | 3.7 | 2.92
19 | ATL3 (effect direction: stabilized) (UniProt Q6DD88) | 3.44 | 3.19
20 | RAB21 (effect direction: stabilized) (UniProt Q9UL25) | 4.53 | 3.75
21 | ARPC1B (effect direction: stabilized) (UniProt O15143) | 3.83 | 4.25
22 | PAK4 (effect direction: stabilized) (UniProt O96013) | 3.44 | 4.07
23 | PRKAR1A (effect direction: stabilized) (UniProt P10644) | 3.72 | 3.85
24 | GALK1 (effect direction: stabilized) (UniProt P51570) | 4.06 | 4.02

Row | Target | pEC50 (guanosine triphosphate) | pEC50 (adenosine triphosphate)
25 | RHOA (effect direction: stabilized) (UniProt P61586) | 4.45 | 4.15
26 | NUBP2 (effect direction: stabilized) (UniProt Q9Y5Y2) | 4.71 | 3.41
27 | MCM4 (effect direction: stabilized) (UniProt P33991) | 3.86 | 3.88
28 | CCT3 (effect direction: stabilized) (UniProt P49368) | 3.62 | 4.53
29 | ACSS1 (effect direction: stabilized) (UniProt Q9NUB1) | < 3.3 | 3.42
30 | GTPBP3 (effect direction: stabilized) (UniProt Q969Y2) | 4.67 | 3.74
31 | RAB4B (effect direction: stabilized) (UniProt P61018) | 5 | 3.79
32 | KIF2A (effect direction: stabilized) (UniProt O00139) | 4.29 | 4.21
33 | UniProt P61086 (effect direction: stabilized) | 3.76 | 4.05
34 | UniProt P61224 (effect direction: stabilized) | 4.25 | 3.9
35 | UniProt Q16512 (effect direction: stabilized) | 4.22 | 3.69
36 | DDX46 (effect direction: stabilized) (UniProt Q7L014) | 3.86 | 3.56
37 | UniProt O43776 (effect direction: stabilized) | 4.05 | 4.13
38 | UniProt P62333 (effect direction: stabilized) | 3.75 | 4.38
39 | MCM6 (effect direction: stabilized) (UniProt Q14566) | 3.98 | 4.05
40 | RAB5C (effect direction: stabilized) (UniProt P51148) | 4.49 | 4.22
41 | MTHFD1 (effect direction: stabilized) (UniProt P11586) | 3.95 | 3.71
42 | MAX (effect direction: destabilized) (UniProt P61244) | 4.65 | 4.13
43 | LONP1 (effect direction: stabilized) (UniProt P36776) | 3.91 | 4.03
44 | GNAI3 (effect direction: stabilized) (UniProt P08754) | 4.36 | < 2.7
45 | SUCLG1 (effect direction: stabilized) (UniProt P53597) | 3.83 | 3.48
46 | UniProt Q6XQN6 (effect direction: stabilized) | 3.93 | 4.21
47 | TBRG4 (effect direction: stabilized) (UniProt Q969Z0) | 3.48 | 3.26
48 | GMPS (effect direction: stabilized) (UniProt P49915) | 4.07 | 2.85

Row | Target | pEC50 (guanosine triphosphate) | pEC50 (adenosine triphosphate)
49 | HARS (effect direction: stabilized) (UniProt P12081) | 3.69 | 3.97
50 | VPS4B (effect direction: stabilized) (UniProt O75351) | 3.92 | 4.33
51 | TUBG1 (effect direction: stabilized) (UniProt P23258) | 4.06 | 3.17
52 | SET (effect direction: stabilized) (UniProt Q01105) | 3.71 | 3.06
53 | EIF2B4 (effect direction: stabilized) (UniProt Q9UI10) | 3.73 | 3.65
54 | RUVBL2 (effect direction: stabilized) (UniProt Q9Y230) | 3.77 | 4.33
55 | UAP1L1 (effect direction: stabilized) (UniProt Q3KQV9) | 3.38 | 3.13
56 | OSGEP (effect direction: stabilized) (UniProt Q9NPF4) | 3.88 | 3.8
57 | UniProt P61026 (effect direction: stabilized) | 4.35 | 3.83
58 | UBA1 (effect direction: stabilized) (UniProt P22314) | 3.79 | 4.18
59 | IMPDH2 (effect direction: stabilized) (UniProt P12268) | 3.62 | 3.26
60 | UniProt O75323 (effect direction: stabilized) | 3.66 | 3.94
61 | UniProt Q712K3 (effect direction: stabilized) | 3.86 | 4.18
62 | CNP (effect direction: stabilized) (UniProt P09543) | 3.91 | 3.58
63 | DRG2 (effect direction: stabilized) (UniProt P55039) | 4.32 | 3.7
64 | ILK (effect direction: stabilized) (UniProt Q13418) | 4.17 | 3.37
65 | EIF2B5 (effect direction: stabilized) (UniProt Q13144) | 4.12 | 3.77
66 | ARL2 (effect direction: stabilized) (UniProt P36404) | 4.15 | 3.3
67 | NEK7 (effect direction: stabilized) (UniProt Q8TDX7) | 4.11 | 4.02
68 | GUK1 (effect direction: stabilized) (UniProt Q16774) | 3.91 | 3.78
69 | DARS (effect direction: stabilized) (UniProt P14868) | 3.9 | 3.92
70 | TNPO1 (effect direction: stabilized) (UniProt Q92973) | 3.68 | 2.89
71 | UniProt Q01130 (effect direction: stabilized) | 3.56 | 3.23
